NC(=O)C[C@H](N)C(=O)O.O
solubility (mole fraction)
Details	278.15 K	283.15 K	288.15 K	293.15 K	298.15 K	303.15 K	308.15 K	313.15 K	318.15 K	323.15 K
in acetonitrile	5.98e-06	8.11e-06	1.09e-05	1.44e-05	1.89e-05	2.49e-05	3.2e-05	4.11e-05	5.24e-05	6.64e-05
in ethanol	1.32e-05	1.77e-05	2.36e-05	3.11e-05	4.06e-05	5.25e-05	6.73e-05	8.57e-05	0.000108	0.000136
in ethyl acetate	1.25e-05	1.73e-05	2.29e-05	2.99e-05	3.89e-05	5.01e-05	6.39e-05	8.21e-05	0.000102	0.000129
in isobutanol	1.11e-05	1.49e-05	1.97e-05	2.59e-05	3.38e-05	4.36e-05	5.58e-05	6.98e-05	8.97e-05	0.000114
in isopropanol	9.67e-06	1.26e-05	1.65e-05	2.22e-05	2.91e-05	3.81e-05	4.96e-05	6.19e-05	8.17e-05	0.000104
in methanol	1.54e-05	2.04e-05	2.7e-05	3.52e-05	4.56e-05	5.86e-05	7.42e-05	9.4e-05	0.000118	0.000147
in methyl acetate	1.66e-05	2.23e-05	2.91e-05	3.78e-05	4.89e-05	6.28e-05	7.98e-05	0.000101	0.000127	0.000158
in n-butanol	1.07e-05	1.43e-05	1.9e-05	2.5e-05	3.26e-05	4.2e-05	5.38e-05	6.84e-05	8.62e-05	0.000105
in n-butyl acetate	1.57e-05	2.09e-05	2.7e-05	3.49e-05	4.54e-05	5.76e-05	7.24e-05	9.16e-05	0.000114	0.000142
in n-propanol	1.07e-05	1.45e-05	1.94e-05	2.57e-05	3.37e-05	4.4e-05	5.68e-05	7.28e-05	9.28e-05	0.000117
in n-propyl acetate	1.63e-05	2.14e-05	2.81e-05	3.66e-05	4.76e-05	6.11e-05	7.78e-05	9.84e-05	0.000121	0.000154
in water	0.0014	0.00178	0.00227	0.0028	0.00344	0.00422	0.00518	0.00627	0.0076	0.00914
